Results: patent US12258377B2 (Scancell Limited, priority 2012, dated 2025)
Like-named read-outs stand apart in the source and are kept apart here. Square brackets hold non-standard residues; d marks the D form. Ends that are not written are not given here. Cit = NC(=O)NCCC[C@H](N)C(=O)O

Legend:
splenocytes [1] = assay: Ex vivo elispot assay on splenocytes of immunised C57B1 mice; format: in vivo, C57BL/6 mice; settings: C57B1 mice
Procedure: (§1) C57BL/6 mice (Charles River, UK), HLA-DR4 mice (Taconic, USA), HHDII mice (Pasteur institute, France) and HHDII/DRI mice (Pasteur institute, France) were used, aged between 8 and 12 weeks, and cared for by the staff at Nottingham Trent University. All work was carried out under a Home Office project license. Peptides were dissolved in 10% Dimethylformamide to 1 mg/ml and then emulsified (a series of dilutions) with different adjuvants: CpG and MPLA 6 μg/mouse of each (Invivogen, UK), Incomplete Freund's […] (Sigma, UK), and GMCSF 10 μg/mouse (Peprotech, UK). Peptides (25 μg/mouse) were injected subcutaneously at the base of the tail. DNA (1 μg/mouse) was coated onto 1.0 μm gold particles (BioRad, Hemel Hempstead, UK) using the manufacturer's instructions and administered intradermally by genegun (BioRad). Homspera (10 nM/mouse) (PeptideSynthetics, UK) was injected intradermally with genegun immunisation. Mice were immunized at either day 0 for peptide immunisation or days, 0, 7, and 14 for peptide and genegun immunisation. Spleens were removed for analysis at day 14 for peptide and day 20 for peptide or genegun immunisation unless stated otherwise. 400 μg Anti-CD25 antibody (PC61) was administered i.p. in saline 3 days prior to the immunisation. 200 μg Anti-CTLA-4 antibody (UC 10-4F, 10-11) was administered i.p. in saline at day 7 and 14 with either genegun or peptide immunisation.
(§2) Elispot assays were performed using murine IFNγ, IL-17 and IL-10 capture and detection reagents according to the manufacturer's instructions (Mabtech, Sweden). In brief, anti-IFNγ, IL-17 and IL-10 antibodies were coated onto wells of 96-well Immobilin-P plate. Synthetic peptides (at a variety of concentrations) and 5×10^5 per well splenocytes were added to the wells of the plate in triplicate. Tumour target cells were added where relevant at 5×10^4/well in triplicate and plates incubated for 40 hrs at 37° C. After incubation, captured IFNγ, […], IL-17 and IL-10 were detected by biotinylated anti-IFNγ, IL-17 and IL-10 antibodies and developed with a strepatavidin alkaline phosphatase and chromogenic substrate. Spots were analysed and counted using an automated plate reader (Cellular Technologies Ltd). Functional avidity was calculated as the concentration mediating 50% maximal effector function using a graph of effector function versus peptide concentration.

B16F1-DR4 cells = assay: Tumour challenge with B16F1-DR4 cells; format: in vivo, HLA-DR4 transgenic mice; settings: for anti-tumour response with blockade of IFNγ in vivo: IFNγ neutralising monoclonal antibody; for anti-tumour response with blockade of IL-17 in vivo: IL-17 neutralising antibody; for anti-tumour response in combination with CD4 T cell depletion (anti-CD4 antibody): clone GK1.5; for anti-tumour response / survival: peptide 25 μg in CpG and MPLA s.c. or DNA via gene gun, days 4, 11, 18, versus unimmunised control
Procedure: (§3) For tumour challenge experiments mice were challenged with 2.5×10^4 B16 HHDII NYESO/TAP2 siβ2m 1F10 cells or B16 DR4 2E7 cells subcutaneously on the right flank 3 days prior to primary immunisation and then were immunised as above. Anti-IFNγ antibody (300 μg/dose), anti-IL-17 antibody (200 μg/dose) and anti-HLA-DR antibody (300 μg/dose) were administered i.p. in saline at days 2, 7, 11 and 14 post tumour implant. Anti-CD4 antibody (500 μg/dose) was administered i.p.in saline at days 2 and 8 post tumour implant. Tumour growth was monitored at 3-4 days intervals and mice were humanely euthanized once tumour reached ≥10 mm in diameter.

B16F1 cells = assay: Tumour challenge with B16 tumour lacking HLA-DR0401; format: in vivo, HLA-DR4 transgenic mice; settings: B16 tumour lacking expression of HLA-DR0401; 25 μg peptide in CpG and MPLA
Procedure: as §3

Granzyme B = Granzyme B ELISA on supernatant of ex vivo IFNγ elispot; format: cell-based, HLA-DR4 transgenic mice; settings: immunised days 0, 7, 14 in CPG and MPLA
Description: Supernatant from ex vivo IFNγ elispot assays on splenocytes was removed after 40 hrs and assessed for Granzyme B by elisa assay (R&D systems) according to manufacturer's instructions.

T2 DR4 tumour cells = assay: 51Cr-release assay, CTL lines from immunised mice against T2 DR4 cells; format: cell-based; settings: for killing of normal splenocytes: DR4 splenocytes; for killing of T2 tumour cells transfected with human DR4: targets pulsed with peptide or not
Procedure: Target cells were labelled for 1 hr with 1.85 MBq sodium (^51Cr) chromate (Amersham, Essex, UK) with or without 10 μg/ml peptide. Post incubation they were washed 3 times in RPMI. Targets 5×10^3/well of a 96-well V-bottomed plates were set up and co incubated with different densities of effector cells in a final volume of 200 μl of RPMI, 10% FCS (Sigma), 20 mM HEPES buffer, 2 mM L-glutamine, 100 units/ml penicillin and 100 μg/ml streptomycin. After 20 hrs at 37° C., 50 μl of supernatants were removed from each well and transferred to a Lumaplate (Packard, Rigaweg, the Netherlands). Plates were read on a Topcount Microplate Scintillation Counter (Packard). Percentage specific lysis was calculated using the following formula: specific lysis=100×[(experimental release−spontaneous release)/(maximum release−spontaneous release)].

HLA-DR0401 [2] = target: HLA-DR0401 (Homo sapiens, UniProt P01903+P01911, A100K/A169T/F76Y/I96L/K127E/L162R/M171V/N62H/P40V/Q125Y/R42H/S133A/S149N/S66Y/V115G/V209L/W38E); assay: HLADR0401 competitive binding assay against biotinylated HA306-318; settings: FIG. 12
Description: In brief, peptides of interest were mixed with a predetermined concentration biotinylated HA306-318 reference peptide at increasing concentrations and added to plate bound HLA DR0401. Amounts of biotinylated reference peptide binding to HLA DR0401 was quantified using streptavidin linked enzyme step followed by detection with chromogenic substrate. Maximal binding is taken as the value achieved by biotinylated HA 306-318 peptide alone. As a positive control unlabelled HA 306-318 peptide was used to compete with the biotinylated version.

PBMC = assay: Proliferation assay of PBMC from cancer patients; format: cell-based, human; settings: PBMC stimulated with 10 μg/ml peptide for 4, 7 and 11 days, 3H-thymidine
Procedure: PBMC were isolated from freshly drawn heparinised blood by Ficol-Hypaque (Sigma) gradient centrifugation. PBMC (1.5×10^6 cells/well) were stimulated with single peptides (final concentration 10 μg/ml) in RPMI containing 5% pooled autologous human serum, 2 mM glutamine, 20 mM HEPES and Penicillin-streptomycin (1%) in a final volume of 2 ml. Stimulation with purified protein derivative, PPD (final concentration 10 μg/ml) served as a positive control for the proliferative capacity of PBMC. As a negative control PBMC were incubated with medium alone. The PBMC were cultured at 37° C. in an atmosphere of 5% CO2 for 4, 7 and 11 days. To assess proliferation at these times points 100 μl in triplicate from each culture was aliquoted into a round bottom well of a 96 well plate and ^3H-thymidine added (0.0185 MBq/well) and incubated at 37° C. for a further 8 hours. The cultures were harvested onto unifilter plates and incorporation of ^3H-thymidine was determined by β-scintillation counting. The results were assessed by calculating the stimulation index (SI) as the ratio of the mean of counts per minute (cpm) of epitope-stimulated to the mean of unstimulated cultures. The proliferative assay was considered positive when SI >2.5.

splenocytes [3] = assay: Ex vivo elispot assay on splenocytes of immunised HLA-DR4 transgenic mice; format: in vivo; settings: for IFNγ/IL-17 response with alum or IFA / IFNγ/IL-17 responses with CpG/MPLA, GMCSF and TMX201 adjuvants / IL-10 responses to the citrullinated peptides with IFA: 25 μg peptide s.c.; for IL-10 elispot responses: against wild type and citrullinated peptides; for IFNγ elispot response to citrullinated peptide, mean / IFNγ elispot response to wild type peptide, mean: day 14 splenocytes; for response after depletion of CD4 cells or addition of MHC class II blocking antibody: L243 antibody, FIG. 15
Procedure: as §1, §2

splenocytes [4] = assay: Ex vivo elispot assay on splenocytes of immunised HLA-DR1 / HLA-A2/DR1 (HHDII/DR1) transgenic mice; format: in vivo; settings: HHD1/DR1 mice
Procedure: as §1, §2

HLA-DR0401 [5] = target: T1, HLA-DR0401 (human); assay: competitive binding assay, plate-bound HLA-DR0401, biotinylated HA306-318 as competitor
T1 construct: also called purified HLA-DR0401; HLA-DR4

[6] = 25 μg peptide with CpG and MPLA day 0, day 14
[7] = 25 μg peptide with CpG and MPLA day 0, peptide 5 μM
[8] = 25 μg peptide in CpG and MPLA s.c. days 4, 11, 18
[9] = 25 μg peptide with CpG and MPLA day 0, day 14, peptide 5 μM

Molecule | response after peptide immunisation (splenocytes [1]) | anti-tumour response with blockade of IFNγ in vivo (B16F1-DR4 cells) | anti-tumour response with blockade of IL-17 in vivo (B16F1-DR4 cells) | anti-tumour response in combination with CD4 T cell depletion (anti-CD4 antibody) (B16F1-DR4 cells) | anti-tumour response / survival (B16F1-DR4 cells) | tumour growth and survival (B16F1 cells) | Granzyme B release upon stimulation with citrullinated peptides (Granzyme B) | killing of normal splenocytes (T2 DR4 tumour cells) | killing of T2 tumour cells transfected with human DR4 (T2 DR4 tumour cells) | IFNγ/IL-17 response with alum or IFA (splenocytes [3]; day 14) | IFNγ/IL-17 responses with CpG/MPLA, GMCSF and TMX201 adjuvants (splenocytes [3]; day 14) | IL-10 responses to the citrullinated peptides with IFA (splenocytes [3]; day 14) | IL-10 elispot responses (splenocytes [3]; [6]) | IFNγ elispot response to citrullinated peptide, mean (splenocytes [3]; [7]) | IFNγ elispot response to wild type peptide, mean (splenocytes [3]; [7]) | response after depletion of CD4 cells or addition of MHC class II blocking antibody (splenocytes [3]; IFNγ elispot) | response after peptide immunisation (splenocytes [4]) | also measured
citSYVTTSTcitTYSLGSALcitPSTS ([Cit]SYVTTST[Cit]TYSLGSAL[Cit]PSTS) [citrullinated vim 28-49] | failed to raise a response | abrogates | small effect significant influence | totally abrogates the anti-tumour response | significantly enhanced survival | delayed tumour growth and enhanced survival | release of Granzyme B | no killing of normal splenocytes | killed transfected targets whether they were pulsed with the appropriate peptide or not | no response | Potent IFNγ/IL-17 responses | high frequency IL-10 responses | No significant IL-10 responses | 600 /million splenocytes | 250 /million splenocytes | CD4 mediated | failed to raise a response | binding to HLA-DR0401 (competition with HA 306-318 reference peptide) (HLA-DR0401 [2]): better binding to HLA-DR0401 compared to the wild type version; patients showing a proliferative response (SI >2.5) (PBMC): 5/11; patients showing a proliferative response (SI >2.5) (PBMC; listed as vim 28 cit): five; EC50 (splenocytes [3]; 25 μg peptide day 0, day 14, increasing peptide concentration, IFNγ elispot, read-out: avidity of the IFNγ response (concentration mediating 50% maximal effector function)): 1000 nM; EC50 (splenocytes [3]; 25 μg peptide day 0, day 14, increasing peptide concentration, IL-17 elispot, read-out: avidity of the IL-17 response (concentration mediating 50% maximal effector function)): 1000 nM; IFNγ elispot response against vimentin 28-49 triple, double and single citrullinated peptides (splenocytes [3]; peptide immunisation, FIG. 11): significantly stronger response
LPNFSSLNLRETNLDSLPL [citrullinated vim 415] | failed to raise a response | abrogates | low significant influence | totally abrogates the anti-tumour response | strong anti-tumour responses | failed to show any tumour response | release of Granzyme B | no killing of normal splenocytes | killed transfected targets whether they were pulsed with the appropriate peptide or not | no response | Potent IFNγ/IL-17 responses | high frequency IL-10 responses | No significant IL-10 responses | 1000 /million splenocytes | no responses | CD4 mediated | failed to raise a response | mice cured of their tumour (B16F1-DR4 cells; [8]): 30%; mice with no tumour at day 35 (B16F1-DR4 cells; [8]): 50%; anti-tumour response in combination with anti-HLA-DR blocking antibody (B16F1-DR4 cells; B16 tumour expressing HLA-DR0401): prevents the anti-tumour response; patients showing a proliferative response (SI >2.5) (PBMC; listed as citrullinated vim 415-433): 5/11; patients showing a proliferative response (SI >2.5) (PBMC; listed as vim 415 cit): Five of eight; EC50 (splenocytes [3]; 25 μg peptide days 0, 7, 14, anti-CTLA-4 days 7 and 14, day 21, IFNγ elispot, read-out: avidity of the T cell response in the presence of an anti-CTLA-4 mab): 10 nM; EC50 (splenocytes [3]; 25 μg peptide days 0, 7, 14, day 21, IFNγ elispot, read-out: avidity of the T cell response without anti-CTLA-4 mab): 1000 nM; IL-2 elispot response to citrullinated peptide, mean (splenocytes [3]; [9]): 350 /million splenocytes; IL-2 elispot response to wild type peptide (splenocytes [3]; [9]): no response; IL-17 elispot response to citrullinated peptide, mean (splenocytes [3]; [9]): 530 /million splenocytes; IL-17 elispot response to wild type peptide, mean (splenocytes [3]; [9]): 140 /million splenocytes; T cell responses to mouse vim 415 cit versus human vim 415 cit (splenocytes [3]; immunised with 25 μg human peptide day 0, day 14, IFNγ and IL-17 elispot): equal responses to both peptides; T helper phenotype when immunised with complete Freund's adjuvant (splenocytes [3]; mouse, in vivo): Th1/IL-17 phenotype
RSYVTTSTRTYSLGSALRPSTS (also called vim 28-49; vim 28) [Vimentin 28-49 wild type peptide] |  |  |  |  |  |  |  |  |  |  |  |  |  |  |  |  |  | binding result (HLA-DR0401 [5]): binds
